We go through three compounds from PMC6471559, “Design and Synthesis of a New Soluble Natural β-Carboline Derivative for Preclinical Study by Intravenous Injection” (International Journal of Molecular Sciences, 2019).

Data set [1] is described as follows: Kinetic solubility by HPLC, Multiscreen Solubility Filter plate. Format: physicochemical. The text has this:
From those data, we chose an isopentyl substituent on position 7, which is suitable to decrease neurotoxicity of the targeted compound. We selected a propyl group on position 9 as a short alkyl substituent, seems to be suitable to maintain good antiproliferative properties. […] This high activity can result in low administered doses, thus counter-balancing the low LD50 associated with this N^2 substitution. […] It has been shown that pyridine scaffold in lead compounds can result in higher solubility because of the presence of the heteroatom. Finally, the pyridyl group offers good potential for salification and/or cocrystallization which can also improve pharmacological properties.
The kinetic solubility of compounds 1a and 1b was determined by HPLC method, using a Multiscreen Solubility Filter 96-well plate (Merck®) using a test adapted from. First, the calibration curve was performed from five solutions (3.13 µM 12.5 µM, 50 µM, 200 µM and 500 µM, with a final DMSO concentration of 5%). The kinetic solubility was measured in triplicate at physiological pH in phosphate buffer (0.05 M Na2HPO4; 0.02 M NaCl adjusted at physiological pH using solution NaH2PO4 0.05 M; NaCl 0.02 M) and in acidic condition (0.2 M HCl, 0.03 M NaCl adjusted at pH = 1.1 using HCl 37%). […]

Data set [2] in a line: Thermodynamic solubility by UV absorbance at 330 nm after 72 h stirring at 37 °C. Format: physicochemical. The following applies: thermodynamic from solid. The protocol: (§1) Compound 2 solubility and stability measurements were performed at 37 °C at pH 1.1 (0.02 M NaCl, pH 1.1 obtained by HCl addition) to mimic gastric conditions, at pH 7.4 (0.050 M Na2HPO4/NaH2PO4 and 0.02 M NaCl, pH 7.4) and simulated injection vehicle (0.9% NaCl and 0.1% Polysorbate 80). Stability measurements were performed from 0 h to 72 h after complete solubilization. […] At pH 1.1 as well as in the simulated injection vehicle, a higher solubility is observed in comparison with the solubility at physiological pH. Solubility is 1.06 ± 0.08 mg/mL at physiological pH, 1.62 ± 0.13 mg/mL at acidic pH, as well as 1.87 ± 0.07 mg/mL in a simulated vehicle injection (Table 1).
Solubility of compound 2 was evaluated at 37 °C, at pH 1.1 (0.02 M NaCl, pH 1.1 obtained by HCl addition), at physiological pH (buffer 0.050 M Na2HPO4/NaH2PO4 and 0.02 M NaCl, pH 7.4) as well as in a simulated injection vehicle (0.9% NaCl and 0.1% Polysorbate 80 pH 7.4). To this aim, an excess of compound 2 was placed in the […] media in a 24 well plate and stirred (1200 rpm) 72 h at 37 °C after hermetic sealing. After 72 h of stirring, the solutions were filtered (0.2 µm) and diluted 100 times. The solubility was determined by UV absorbance at 330 nm using a calibration curve (five points in a range of concentration between 0.005 and 0.1 mg/mL). All measurements were made in triplicate and adequate dissolutions were performed to stay in Beer-Lambert conditions.

Data set [3] in a line: Stability in three media by UV spectra from 0 h to 72 h at 37 °C. Format: physicochemical. The following applies: pH 1.1, pH 7.4 and simulated injection vehicle (0.9% NaCl, 0.1% Polysorbate 80). As to the method: as §1
We have evaluated the stability of compound 2 in three different conditions (at pH 1.1, at pH 7.4 and in a simulated injection vehicle) for three days and at 37 °C because it is compatible with physiological temperature and because a higher temperature can result in a better solubilization. We observe that the compound remains stable for at least three days in the three different solutions tested, which allowed determination of its thermodynamic solubility. […]

Data set [4] relates to A549 human lung carcinoma cells. Put plainly: MTT antiproliferative assay, 72 h. Format: cell-based. As to the method:
(§2) Antiproliferative activity of compound 2 was evaluated using a colorimetric MTT assay for 72 h. […] Compound 2 activity was studied on different cancer cell lines: two glioma cell lines (T98G, Hs683), one breast cancer cell line (MDA-MB-231), one lung cancer cell line (A549) and one pancreatic cell line (PANC-1). A mean submicromolar antiproliferative activity was observed (Table 2). […] Cytotoxicity of compound 2 against normal cells (epithelial breast cells MCF-10a) vs. cancer cells (MDA-MB-231) was also determined. […] MDA-MB-231 human breast cancer cells, T98G human brain cancer cells and PANC-1 human epithelioid carcinoma were maintained in culture in 75-cm^2 polystyrene flasks (Corning®, […], Luxembourg) with respectively 15 mL of Dulbecco's modified Eagle's medium (#341966-029 DMEM 1X; ThermoFisher, Gibco®, Geel, Belgium) containing 4.5g/L of glucose, 10% of fetal calf serum (#10270 ThermoFisher, Gibco®, Geel, Belgium) and supplemented with penicillin-streptomycin 10,000 U/mL (#15140 ThermoFisher, Gibco®, Geel, Belgium) incubated under an atmosphere containing 5% CO2. HS683 human glioma and A549 human lung carcinoma were maintained in culture in 75-cm^2 polystyrene flasks (Corning®) with respectively 15 mL of Roswell Park Memorial Institute medium (Gibco® RPMI 1640, Thermofisher, Geel, Belgium) containing 10% of fetal calf serum (#10270 ThermoFisher, Gibco®, Geel, Belgium) and supplemented with penicillin-streptomycin 10,000 U/mL (#15140 ThermoFisher, Gibco®, Geel, Belgium), glutamine (200 mM) and HEPES (25 mM) incubated under an atmosphere containing 5% CO2. MCF-10-a human non-tumorigenic breast epithelial cells were maintained in 75-cm^2 polystyrene flasks (Corning®, […], Luxembourg) with 15 mL of Gibco®, Geel, Belgium) F-12 Nutrient Mixture (Ham) containing 5% of horse serum (Invitrogen®) supplemented with 10 μg/mL of human Insulin (Sigma®, Schnelldorf, Germany), 0.5 μ/mL of Hydrocortisone (Sigma®, Schnelldorf, Germany) and 20 ng/mL of Epidermal Growth Factor (Peprotech®, London, UK) incubated under an atmosphere containing 5% CO2. The cell lines were obtained from the American Type Culture Collection (ATCC, Manassas, VA). Antiproliferative activity and overall cytotoxicity of compound 2 on cancer and normal cells lines (breast cancer cell line MDA-MB231 and non-tumorigenic breast epithelial cells (MCF-10a) were determined in vitro using colorimetric MTT (Sigma-Aldrich (Schnelldorf, Germany)) solution (0.5 mg/mL in PBS) assay according to a protocol adapted from. Cells were seeded in 96-well culture plate (1200 cells/well 1 day before incubation and were treated for 72 h in culture medium at 37 °C with different concentrations of compound 2 ranging from 1 nM to 10 μM, with semilog concentration increasing of the compound. The yellow MTT product was converted to a purple formazan derivative through mitochondrial enzymatic reduction. At the end of the incubation of 4 h, the plate was centrifugated at 1200 rpm for 5 min and the MTT solution was decanted. Then, blue formazan was solubilized with DMSO and absorbance at 570 nm, which is directly proportional to the number of metabolic active cells, is determined. Experiments were carried out in sextuplicates.
A general note: Tetrazolium dyes change colour on reduction, which living cells bring about.

Data set [5] deals with Hs683 human glioma cells. Nature of the data set: MTT antiproliferative assay, 72 h. Format: cell-based. As to the method: as §2
Data set [6] deals with MDA-MB-231 human breast cancer cells. Nature of the data set: MTT antiproliferative assay, 72 h. Format: cell-based. The protocol: as §2
Data set [7] concerns PANC-1 human epithelioid carcinoma cells. Put plainly: MTT antiproliferative assay, 72 h. Format: cell-based. As to the method:
as §2

The test system of data set [8] is T98G human brain cancer cells. Put plainly: MTT antiproliferative assay, 72 h. The class given is cell-based. As to the method:
as §2

In data set [9] the test system is A549, MDA-MB-231, PANC-1, T98G and Hs683 cell lines. Put plainly: MTT antiproliferative assay, 72 h, summary over five cancer cell lines. The class given is cell-based. The following applies: Homo sapiens, A549, MDA-MB-231, PANC-1, T98G and Hs683, MTT, read-out: IC50 range over five cancer cell lines. The protocol: (§3) Antiproliferative activity of compound 2 was evaluated using a colorimetric MTT assay for 72 h. […] Compound 2 activity was studied on different cancer cell lines: two glioma cell lines (T98G, Hs683), one breast cancer cell line (MDA-MB-231), one lung cancer cell line (A549) and one pancreatic cell line (PANC-1). A mean submicromolar antiproliferative activity was observed (Table 2). […] Cytotoxicity of compound 2 against normal cells (epithelial breast cells MCF-10a) vs. cancer cells (MDA-MB-231) was also determined. […] Antiproliferative activity and overall cytotoxicity of compound 2 on cancer and normal cells lines (breast cancer cell line MDA-MB231 and non-tumorigenic breast epithelial cells (MCF-10a) were determined in vitro using colorimetric MTT (Sigma-Aldrich (Schnelldorf, Germany)) solution (0.5 mg/mL in PBS) assay according to a protocol adapted from. Cells were seeded in 96-well culture plate (1200 cells/well 1 day before incubation and were treated for 72 h in culture medium at 37 °C with different concentrations of compound 2 ranging from 1 nM to 10 μM, with semilog concentration increasing of the compound. […] Then, blue formazan was solubilized with DMSO and absorbance at 570 nm, which is directly proportional to the number of metabolic active cells, is determined. […]

The subject of data set [10] is MCF-10a human non-tumorigenic breast epithelial cells. Put plainly: MTT cytotoxicity on normal cells vs. cancer cells. The class given is cell-based. The settings on record: in the IC50 concentration range. The protocol: as §3

Structures are written as SMILES. “Also recorded” adds a separate entry of the source. Read-outs that look alike come from different tables or passages of the source.

Take `CCCn1c2cc(OCCC(C)C)ccc2c2ccnc(C)c21` [1b, 1-methyl-7-(3-methylbutoxy)-9-propyl-9H-pyrido[3,4-b]indole]: the “Kinetic solubility at low pH” value in data set [1] (acidic condition pH 1.1, 5% DMSO, preliminary data, values only in Figure 2B) is “good solubility at low pH”.
As usually defined, the solubility (thermodynamic) is solubility found after equilibrating the solid with the medium. The term IC50 denotes the midpoint of a concentration-inhibition curve. Consider `CCCn1c2cc(OCCC(C)C)ccc2c2cc[n+](Cc3ccccn3)c(C)c21.[Br-]` [compound 2, 1-methyl-7-(3-methylbutoxy)-9-propyl-2-[(pyridin-2-yl)methyl]-9H-pyrido[3,4-b]indol-2-ium bromide], for which the thermodynamic solubility at 72 h is 1620 ± 130 µg/mL in data set [2] (0.02 M NaCl solution acidified with HCl, pH 1.1, simulated gastric fluid, pH 1.1 (0.02 M NaCl, HCl), read-out: Mean thermodynamic solubility at 37 °C); 1460 ± 10 µg/mL in data set [2] (0.02 M NaCl solution acidified with HCl, pH 1.1, simulated gastric fluid, pH 1.1 (0.02 M NaCl, HCl), read-out: Thermodynamic solubility at 37 °C replicate 1); 1630 ± 20 µg/mL in [2] (0.02 M NaCl solution acidified with HCl, pH 1.1, simulated gastric fluid, pH 1.1 (0.02 M NaCl, HCl), read-out: Thermodynamic solubility at 37 °C replicate 2); 1770 ± 10 µg/mL in data set [2] (0.02 M NaCl solution acidified with HCl, pH 1.1, simulated gastric fluid, pH 1.1 (0.02 M NaCl, HCl), read-out: Thermodynamic solubility at 37 °C replicate 3); 1060 ± 80 µg/mL in [2] (phosphate buffer, pH 7.4, aqueous buffer, pH 7.4 phosphate buffer, read-out: Mean thermodynamic solubility at 37 °C); 980 ± 10 µg/mL in data set [2] (phosphate buffer, pH 7.4, aqueous buffer, pH 7.4 phosphate buffer, read-out: Thermodynamic solubility at 37 °C replicate 1). For the same compound, the thermodynamic solubility at 72 h in data set [2] (phosphate buffer, pH 7.4, aqueous buffer, pH 7.4 phosphate buffer, read-out: Thermodynamic solubility at 37 °C replicate 2) is 990 ± 10 µg/mL; in data set [2] (phosphate buffer, pH 7.4, aqueous buffer, pH 7.4 phosphate buffer, read-out: Thermodynamic solubility at 37 °C replicate 3), 1150 ± 10 µg/mL; in data set [2] (simulated injection vehicle, pH 7.4, aqueous with cosolvent or surfactant or cyclodextrin, injection vehicle (0.9% NaCl and 0.1% Polysorbate 80), read-out: Mean thermodynamic solubility at 37 °C), 1870 ± 70 µg/mL; in data set [2] (simulated injection vehicle, pH 7.4, aqueous with cosolvent or surfactant or cyclodextrin, injection vehicle (0.9% NaCl and 0.1% Polysorbate 80), read-out: Thermodynamic solubility at 37 °C replicate 1), 1950 ± 10 µg/mL; in data set [2] (simulated injection vehicle, pH 7.4, aqueous with cosolvent or surfactant or cyclodextrin, injection vehicle (0.9% NaCl and 0.1% Polysorbate 80), read-out: Thermodynamic solubility at 37 °C replicate 2) it was 1900 ± 40 µg/mL; in data set [2] (simulated injection vehicle, pH 7.4, aqueous with cosolvent or surfactant or cyclodextrin, injection vehicle (0.9% NaCl and 0.1% Polysorbate 80), read-out: Thermodynamic solubility at 37 °C replicate 3), 1770 ± 10 µg/mL. Further, the “Time for which the compound is stable (no modification of UV spectra)” value in [3] is given as “at least 72 h”. Besides, the “Cytostatic at IC50” value is “cytostatic behavior; also recorded: cytostatic effect” in [4] (A549, metabolic activity at IC50 compared with T = 0 h); “cytostatic behavior; also recorded: cytostatic effect” in data set [6] (MDA-MB-231, metabolic activity at IC50 compared with T = 0 h); “No” in [7] (PANC-1, metabolic activity at IC50 compared with T = 0 h); “No” in data set [8] (metabolic activity at IC50 compared with T = 0 h). Moreover, the IC50 in [4] (Homo sapiens, A549, MTT, 72 h) is 261 nM; in [5], 305 nM; in data set [5] (Homo sapiens, Hs 683, 72 h), less than 500 nM; in data set [6] (Homo sapiens, MDA-MB-231, MTT, 72 h), 449 nM; in data set [7] (Homo sapiens, PANC-1, MTT, 72 h) it was 350 nM; in [8] (Homo sapiens, MTT, 72 h), 2190 nM. Also, in data set [9], the IC50 lay within 200 to 2000 nM. The “Activity on normal cells (MCF-10a) vs. cancer cells (MDA-MB-231)” value is on record as “more active on a cancer cell line than on normal cells” in [10] and “more active on cancer cells (MDA-MB-231) than on normal cells (MCF-10a)” in data set [10] (listed as 1-methyl-7-(3-methylbutoxy)-9-propyl-2-[(pyridin-2-yl)methyl]-9H-pyrido[3,4-b]in).
As to `Cc1nccc2c1[nH]c1cc(OCCC(C)C)ccc12` [1a, 1-methyl-7-(3-methylbutoxy)-9H-pyrido[3,4-b]indole], the “Kinetic solubility at low pH” value in [1] (pH 1.1) is on record as “good solubility at low pH”.
